From US7498408B2, “Ryanodine receptor polypeptides” (E. I. du Pont de Nemours and Company, priority 2002, dated 2009)

Key:
[1] = system: recombinant Heliothis virescens ryanodine receptor (expressed in Sf9 cells); experiment: Calcium release assay in Sf9 cells expressing recombinant Heliothis virescens ryanodine receptor; format: cell-based; settings: 72 hr post-transfection; caffeine 10 mM; Cpd 5 3 μM
From the text: (§1) Several drops of a suspension of recombinant Spodoptera frugiperda cell line, Sf9, transiently expressing insect ryanodine receptors were placed on a poly-L-lysine-coated coverslip and allowed to attach. Cells were then rinsed in physiological saline having the following composition (mM): NaCl 130; KCl 5.4; MgCl2 1.2; CaCl2 1.0; NaHCO3 4.2; NaH2P04 7.3; Glucose 10; Sucrose 63; MES 20; pH 6.3. Cells were then bathed in physiological saline containing the calcium sensitive fluoroprobe, Fura-2 AM (2 μM), and Pluronic F127 (0.002%) for 30 min. Cells were rinsed in standard physiololgical saline for at least 15 min prior to testing. Testing was conducted in standard physiological saline, as the cell lines are devoid of functional voltage-gated calcium channels.
(§2) Imaging studies were conducted using a Nikon Diaphot microscope with a 40× oil immersion objective (NA 1.3) Image acquisition and processing was performed using the MetaFluor™ imaging system from Universal Imaging Corporation (West Chester, Pa.) Calcium calibration was carried out using the Grynkiewicz equation with a dissociation constant (Kd) of 145 nM for Fura-2 (Grynkiewicz et al., 1985). Cell-attached coverslips were placed in a sealed chamber with physiological saline continuously perfused across the cells using a peristaltic pump. Test compounds solubilized in physiological saline were applied by switching the perfusate source.
(§3) For studies involving the stable recombinant Spodoptera frugiperda cell line, Sf9, (other cell lines could also be used such as Sf21, S2, etc) expressing an insect ryanodine receptor from Drosophila melanogaster, or Heliothis virescens (alternatively receptors from other species such as Myzus persicae, Peregrinus maidis, Aphis gossypii, etc) were grown in T75 (or other appropriate sized) flasks in supplemented Grace's insect medium. Cells were maintained in an incubator at 22° C. until testing. Cells were suspension-loaded with the calcium sensitive fluoroprobe, Fura-2 AM (1-2 μM) and Pluronic F127 (0.002%) in culture medium for 30 minutes under agitation. Cells were then centrifuged and the pellet resuspended in physiological saline having the following composition (mM): NaCl 130; KCl 5.4; MgCl2 1.2; CaCl2 1.0; NaHCO3 4.2; NaH2P04 7.3; Glucose 10; Sucrose 63; MES 20; pH 6.3 at approximately 150,000-200,000 cells per well (96-well plate). After a 30 minute equilibration period the cell plate was tested using a Molecular Devices' FlexStation™ system with dual wavelength excitation (340 and 380 nm) and fluorescence emission measured at 510 nm. Test and control samples were added using integrated fluidics and the intracellular calcium monitored over a 2 minute period.

[2] = target: T1, recombinant Drosophila melanogaster ryanodine receptor (expressed in Sf9 cells) (Drosophila melanogaster, UniProt Q24498); format: cell-based
T1 construct: His tag + attB1 + Lox footprint (N-terminal vector extension; present only if the Cre-Lox vector was the one used) (N); expressed in transfected cells
From the text: as §1
Cell-attached coverslips were placed in a sealed chamber with physiological saline continuously perfused across the cells using a peristaltic pump. Test compounds solubilized in physiological saline were applied by switching the perfusate source.
as §3

[3] = target: cockroach ryanodine receptor (roach femoral muscle membranes) (Periplaneta americana, UniProt Z9HFG3YSF4); experiment: Radioligand displacement ([3H]-GN analog Cpd 1) from roach femoral muscle membranes; settings: read-out: Displacement IC50 (nM) P. americana; displacement of [3H]-Cpd 1, roach muscle membranes, 60 min at 32° C.
Experimental: Mid and hind legs from 6-9 week old cockroaches were excised and immediately placed in liquid nitrogen. Excised legs could be stored at −80° C. for several months, if necessary, prior to further fractionation. Typically, membrane preparations started with approximately 55 g (wet weight) of excised legs. All subsequent steps were carried out at 4° C.
The legs were homogenized on ice using a Polytron (Brinkmann Instruments, Westbury, N.Y.) for 2 min at Setting #3. In order to remove all fragments of cuticle, the homogenate was first passed through two layers of cheesecloth and then through one layer of glass wool overlaid on two layers of cheesecloth. On occasion, the cheesecloth clogged with particulates prior to passing all material through. In such cases, fresh cheesecloth (and glass wool) was used for the remainder of the suspension. […] The supernatant was collected and centrifuged for 30 min at 30,000×gmax. The resulting pellet was resuspended in buffer A (1.5 M KCl, 0.3 M sucrose, 0.5 mM CaCl2, 20 mM Tris-HCl, pH 8.0). The membrane suspension was homogenized by hand (about 25 strokes) using a glass-teflon homogenizer. […] Subsequently, the membrane suspension was adjusted to 4 μg protein/μg by addition of buffer A and then stored in 1 ml aliquots at −80° C.
The assay was begun by addition of 25 μl of roach muscle membranes at 2 μg/μl (prepared by thawing and addition of an equal volume of buffer B), and incubation was carried out for 60 min at 32° C. Assays were carried out in triplicate.
The compound was allowed to pre-incubate with the membranes for 10 min at 32° C. […] Assays were carried out in triplicate.
Following incubation, assays were quenched with ice-cold buffer B and immediately filtered on pre-wefted Unifilter 96 GF/B filter microplates using a Unifilter 96 Harvester (PerkinElmer™, Boston, Mass.). Each assay well was then washed 10 times with buffer B, and collected on the same filter microplate. The filter microplates were then placed in a vacuum oven at 32° C. for 3 h, following which 50 μl of Microscint 0 (PerkinElmer™, Boston, Mass.) was added to each well. Plates were then heat sealed and counted using a Topcount microplate scintillation counter (PerkinElmer™, Boston, Mass.).

[4] = system: native cockroach ryanodine receptors (in embryonic neuronal cells); experiment: Calcium release assay, calcium imaging in primary embryonic cockroach neuronal cells; format: cell-based, Periplaneta americana
From the text: Embryonic neuronal cultures of the American cockroach Periplaneta americana were established, with minor modifications, following the method of Beadle and Lees (1988) (in Cell Culture Approaches to Invertebrate Neuroscience, Academic Press, New York, pp 123-127). Briefly, 26-27-day old oothecae were collected, surface-sterilized and cut open along a line one-third of the distance below the dorsal midline. The heads were removed and placed in Schneider's Drosophila medium (Invitrogen Life Technologies™, Carlsbad, Calif.). Using fine forceps 40 brains were individually removed and placed in a small glass vial containing 700 μl of ‘5+4’ medium (‘5+4’ medium contained 5 parts Schneider's Drosophila medium plus 4 parts roach Basal Medium Eagle, with Earle's salts (BME, Sigma™, St. Louis, Mo.). Roach BME (with Earle's salts) contained 5 parts Hepes (1 M), 1 part penicillin/streptomycin and 44 parts BME (with Earle's salts). ‘5+4’ medium was made fresh and sterile filtered (0.2 μm filter) just prior to use). The brains were dissociated by sequential trituration as follows: 1) brains were passed through a standard Pasteur pipette 10 times; 2) the resulting tissue suspension was passed an additional 5 times through a Pasteur pipet with tip flamed to about half of its original diameter; 3) a final 5 passes were performed using a Pasteur pipet with tip flamed to slightly less than half of its original diameter. A repeat pipettor was used to dispense a 5 μl volume of the resulting suspension into the center of each well of a 96-well, glass-bottom plate previously coated with poly-L-lysine (0.2 mg/ml solution). Cells attached to the bottom of the wells during a 50 min incubation at 27-29° C. 150 ul of a 1:1 mixture of Leibovitz's L-15 medium and Yunker's modified Grace's medium was added, and plates were maintained in a humid incubator at 27-29° C. until use. After cells were allowed to attach wells were filled with a 1:1 mixture of Leibovitz's L-15 medium and Yunker's modified Grace's medium (Leibovitz's L-15 and Grace's medium were obtained from Invitrogen Life Technologies™, Carlsbad, Calif. and Yunker's modified Grace's medium was made with Grace's medium modified by addition of 5 mg L-methionine, 10 mg L-alanine, 182 mg MgCl26H20, 1 g Albumin Fraction V, 7 ml Fetal bovine serum, 10 ml Chick embryo extract, 2 ml Penicillin/Streptomycin, and 2 mg 20-hydroxyecdysone (prepared in ethanol prior to addition) to a final volume of 100 ml and sterile filtered (0.2 μm filter)). Cells were maintained in a high humidity incubator at 29° C. until testing.
Cells were rinsed in standard physiological saline having the following composition (mM): NaCl 190; CaCl2 9; KCl 3.1; probenicid 1; Tris buffer 10; pH 7.2. Cells were then bathed in standard physiological saline containing the calcium sensitive fluoroprobe Fluo4 AM (2 μM) and Pluronic F127 (0.002%) for 45 min. Cells were then rinsed in standard physiological saline for at least 15 min prior to testing. Within the hour prior to testing, standard physiological saline was replaced with standard physiological saline containing the organic cation channel blocker pimozide (10 μM), to inhibit influx of external calcium through voltage-gated calcium channels. The 96-well plate was placed on a PriorTm motorized stage mounted onto a Nikon Diaphot microscope and imaged using a 20× Fluor objective (NA 0.75). Individual wells from the 96-well plate were sequentially excited with light at 495 nm, and the emitted fluorescence at 530 nm was detected using a Hamamatsu ORCA ER digital camera with 2 pixel binning (image size 672×512 pixels).
Acquisition control, image processing and image analysis were conducted using Universal Imaging Corporation's MetaMorph™ imaging software (Universal Imaging, West Chester, Pa.). A series of 3 “control” images were acquired for each well. Experimental compounds were added followed by acquisition of 4 “experimental” images for each well. […]

[5] = system: control Sf9 cells without DNA / wild type Sf9; experiment: Calcium response in control or wild-type Sf9 cells lacking recombinant receptor; format: cell-based, Spodoptera frugiperda; settings: caffeine 10 mM; Compound 5 3 μM
From the text: as §1, §2, §3

Sequence of cockroach ryanodine receptor (roach femoral muscle membranes) (Z9HFG3YSF4 1-5141): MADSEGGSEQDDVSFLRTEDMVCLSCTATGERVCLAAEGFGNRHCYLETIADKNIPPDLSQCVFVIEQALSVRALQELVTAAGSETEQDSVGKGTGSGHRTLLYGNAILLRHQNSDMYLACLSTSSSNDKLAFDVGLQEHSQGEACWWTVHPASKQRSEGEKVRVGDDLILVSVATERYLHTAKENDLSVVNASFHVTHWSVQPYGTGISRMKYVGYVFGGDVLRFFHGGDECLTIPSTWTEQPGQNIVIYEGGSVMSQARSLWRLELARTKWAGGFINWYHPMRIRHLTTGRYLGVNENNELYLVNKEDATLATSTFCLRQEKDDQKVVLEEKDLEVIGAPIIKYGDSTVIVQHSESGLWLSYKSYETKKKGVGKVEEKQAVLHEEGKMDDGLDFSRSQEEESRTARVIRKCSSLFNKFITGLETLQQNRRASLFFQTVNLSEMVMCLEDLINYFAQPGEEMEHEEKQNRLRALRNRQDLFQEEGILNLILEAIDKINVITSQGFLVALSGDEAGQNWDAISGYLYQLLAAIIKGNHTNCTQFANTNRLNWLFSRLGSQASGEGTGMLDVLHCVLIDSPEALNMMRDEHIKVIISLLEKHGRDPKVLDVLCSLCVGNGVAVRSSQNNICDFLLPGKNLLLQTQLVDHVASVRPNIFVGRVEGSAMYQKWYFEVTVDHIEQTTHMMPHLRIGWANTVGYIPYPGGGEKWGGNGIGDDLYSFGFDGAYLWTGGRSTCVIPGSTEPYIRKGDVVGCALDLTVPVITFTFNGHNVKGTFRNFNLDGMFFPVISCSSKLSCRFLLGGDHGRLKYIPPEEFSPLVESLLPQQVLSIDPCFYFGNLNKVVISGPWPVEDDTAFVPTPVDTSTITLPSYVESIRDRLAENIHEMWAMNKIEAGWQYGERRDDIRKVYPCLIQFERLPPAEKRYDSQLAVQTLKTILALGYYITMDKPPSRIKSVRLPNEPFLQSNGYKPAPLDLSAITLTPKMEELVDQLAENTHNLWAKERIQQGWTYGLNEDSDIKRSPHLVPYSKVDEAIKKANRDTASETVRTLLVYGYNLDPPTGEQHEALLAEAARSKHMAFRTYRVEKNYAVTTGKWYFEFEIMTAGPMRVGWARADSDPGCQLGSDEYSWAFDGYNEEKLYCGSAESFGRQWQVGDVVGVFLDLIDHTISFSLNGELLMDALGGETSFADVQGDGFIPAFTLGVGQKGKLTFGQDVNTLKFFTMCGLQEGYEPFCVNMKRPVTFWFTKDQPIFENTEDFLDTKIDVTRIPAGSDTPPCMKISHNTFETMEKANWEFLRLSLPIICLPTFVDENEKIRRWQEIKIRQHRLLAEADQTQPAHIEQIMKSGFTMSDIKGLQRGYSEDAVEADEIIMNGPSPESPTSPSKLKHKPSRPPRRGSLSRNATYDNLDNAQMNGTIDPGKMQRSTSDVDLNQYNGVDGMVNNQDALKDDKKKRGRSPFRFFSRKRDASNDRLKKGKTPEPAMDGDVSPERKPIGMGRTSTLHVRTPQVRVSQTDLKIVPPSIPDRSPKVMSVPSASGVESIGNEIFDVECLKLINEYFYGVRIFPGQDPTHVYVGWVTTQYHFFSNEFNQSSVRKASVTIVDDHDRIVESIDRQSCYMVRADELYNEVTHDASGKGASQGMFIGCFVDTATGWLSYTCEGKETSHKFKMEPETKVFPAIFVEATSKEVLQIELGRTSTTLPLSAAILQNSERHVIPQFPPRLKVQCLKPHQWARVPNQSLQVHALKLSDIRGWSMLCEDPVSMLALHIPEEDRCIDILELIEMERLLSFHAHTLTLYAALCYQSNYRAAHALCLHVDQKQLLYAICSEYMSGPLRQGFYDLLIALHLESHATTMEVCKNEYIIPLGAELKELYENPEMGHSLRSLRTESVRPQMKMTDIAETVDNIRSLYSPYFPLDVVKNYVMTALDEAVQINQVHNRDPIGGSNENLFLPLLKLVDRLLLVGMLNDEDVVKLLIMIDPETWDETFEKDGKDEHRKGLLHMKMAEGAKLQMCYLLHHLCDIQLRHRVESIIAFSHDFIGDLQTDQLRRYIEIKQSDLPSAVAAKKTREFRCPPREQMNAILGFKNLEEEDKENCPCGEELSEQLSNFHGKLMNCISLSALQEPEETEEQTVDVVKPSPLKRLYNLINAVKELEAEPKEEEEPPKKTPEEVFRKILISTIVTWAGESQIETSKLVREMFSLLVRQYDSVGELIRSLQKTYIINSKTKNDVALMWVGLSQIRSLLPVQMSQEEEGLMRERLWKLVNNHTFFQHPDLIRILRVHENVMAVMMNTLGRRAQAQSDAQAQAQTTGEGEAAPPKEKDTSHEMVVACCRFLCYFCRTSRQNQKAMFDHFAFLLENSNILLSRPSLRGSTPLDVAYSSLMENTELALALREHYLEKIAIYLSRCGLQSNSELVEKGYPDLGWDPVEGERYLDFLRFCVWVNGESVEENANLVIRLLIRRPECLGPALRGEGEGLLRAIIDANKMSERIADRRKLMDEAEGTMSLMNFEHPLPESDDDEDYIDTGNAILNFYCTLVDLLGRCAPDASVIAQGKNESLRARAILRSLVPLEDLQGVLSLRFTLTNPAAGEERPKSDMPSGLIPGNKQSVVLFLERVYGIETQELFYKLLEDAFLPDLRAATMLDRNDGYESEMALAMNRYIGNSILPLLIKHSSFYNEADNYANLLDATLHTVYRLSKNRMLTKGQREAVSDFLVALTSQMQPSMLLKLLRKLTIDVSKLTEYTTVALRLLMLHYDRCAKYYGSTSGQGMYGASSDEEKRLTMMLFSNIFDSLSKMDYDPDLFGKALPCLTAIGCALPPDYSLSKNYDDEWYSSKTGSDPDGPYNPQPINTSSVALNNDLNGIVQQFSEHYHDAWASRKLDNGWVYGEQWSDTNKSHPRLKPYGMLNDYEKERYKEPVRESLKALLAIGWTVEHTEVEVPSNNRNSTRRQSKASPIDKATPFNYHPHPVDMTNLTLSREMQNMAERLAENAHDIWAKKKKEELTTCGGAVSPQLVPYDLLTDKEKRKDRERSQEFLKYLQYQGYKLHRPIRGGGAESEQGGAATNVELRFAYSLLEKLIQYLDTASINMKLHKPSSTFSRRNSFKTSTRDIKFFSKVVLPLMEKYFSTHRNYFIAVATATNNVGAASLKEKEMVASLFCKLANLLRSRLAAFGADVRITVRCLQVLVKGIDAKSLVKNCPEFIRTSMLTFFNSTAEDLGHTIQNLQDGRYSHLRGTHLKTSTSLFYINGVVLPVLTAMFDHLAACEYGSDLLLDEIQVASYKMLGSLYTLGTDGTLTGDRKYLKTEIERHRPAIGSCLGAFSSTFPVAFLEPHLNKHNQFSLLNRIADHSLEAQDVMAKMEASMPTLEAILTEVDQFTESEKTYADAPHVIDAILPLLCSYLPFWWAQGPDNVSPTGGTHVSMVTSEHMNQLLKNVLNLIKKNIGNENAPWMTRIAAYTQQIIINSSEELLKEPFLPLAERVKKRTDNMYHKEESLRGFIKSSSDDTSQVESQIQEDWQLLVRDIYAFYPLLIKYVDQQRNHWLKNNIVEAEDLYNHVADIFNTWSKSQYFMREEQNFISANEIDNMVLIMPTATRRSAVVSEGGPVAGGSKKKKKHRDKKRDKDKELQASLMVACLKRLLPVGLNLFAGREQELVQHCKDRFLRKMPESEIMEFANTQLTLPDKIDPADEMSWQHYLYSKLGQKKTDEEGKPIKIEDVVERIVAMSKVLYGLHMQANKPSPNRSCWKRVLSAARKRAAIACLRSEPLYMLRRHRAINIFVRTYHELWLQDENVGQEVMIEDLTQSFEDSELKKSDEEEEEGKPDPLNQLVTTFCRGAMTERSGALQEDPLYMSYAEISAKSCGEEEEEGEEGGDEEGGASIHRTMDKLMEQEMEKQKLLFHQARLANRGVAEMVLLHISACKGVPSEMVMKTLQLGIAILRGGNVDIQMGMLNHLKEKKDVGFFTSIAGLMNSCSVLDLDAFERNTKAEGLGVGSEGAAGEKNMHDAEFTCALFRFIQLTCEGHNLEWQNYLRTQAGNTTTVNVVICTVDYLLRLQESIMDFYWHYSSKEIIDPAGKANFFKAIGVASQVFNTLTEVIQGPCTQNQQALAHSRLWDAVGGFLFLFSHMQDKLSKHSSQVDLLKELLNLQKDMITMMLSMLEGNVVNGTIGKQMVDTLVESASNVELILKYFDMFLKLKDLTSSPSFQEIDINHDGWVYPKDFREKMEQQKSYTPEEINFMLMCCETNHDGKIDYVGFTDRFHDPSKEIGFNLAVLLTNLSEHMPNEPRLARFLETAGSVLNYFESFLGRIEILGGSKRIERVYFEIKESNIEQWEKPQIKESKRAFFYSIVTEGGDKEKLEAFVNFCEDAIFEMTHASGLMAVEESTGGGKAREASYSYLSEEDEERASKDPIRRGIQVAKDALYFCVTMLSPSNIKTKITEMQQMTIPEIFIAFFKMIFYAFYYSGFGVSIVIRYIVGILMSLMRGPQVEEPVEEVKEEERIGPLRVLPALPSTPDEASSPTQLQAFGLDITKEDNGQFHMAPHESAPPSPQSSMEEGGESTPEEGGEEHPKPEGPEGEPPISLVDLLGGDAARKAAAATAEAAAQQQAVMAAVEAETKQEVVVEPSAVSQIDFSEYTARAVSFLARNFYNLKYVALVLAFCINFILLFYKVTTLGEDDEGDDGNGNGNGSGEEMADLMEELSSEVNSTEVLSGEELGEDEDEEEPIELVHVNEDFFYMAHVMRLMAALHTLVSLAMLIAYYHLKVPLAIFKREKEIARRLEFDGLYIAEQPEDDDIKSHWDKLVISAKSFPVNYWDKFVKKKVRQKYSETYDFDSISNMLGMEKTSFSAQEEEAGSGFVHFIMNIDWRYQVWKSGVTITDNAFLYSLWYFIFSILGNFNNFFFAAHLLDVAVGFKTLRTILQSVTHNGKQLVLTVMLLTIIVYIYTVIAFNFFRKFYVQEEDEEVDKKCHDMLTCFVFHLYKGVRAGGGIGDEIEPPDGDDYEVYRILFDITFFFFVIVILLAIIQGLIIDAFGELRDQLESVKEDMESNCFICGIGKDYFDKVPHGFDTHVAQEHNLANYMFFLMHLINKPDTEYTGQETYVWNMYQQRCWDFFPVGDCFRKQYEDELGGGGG

Cc1cccc(C(=O)NC(C)C)c1NC(=O)c1cc(C(F)(F)F)nn1-c1ncccc1Cl [Cpd 5, 1-(3-Chloro-2-pyridinyl)-N-[2-methyl-6-[[(1-methylethyl)amino]carbonyl]phenyl]-3-(trifluoromethyl)-1H-pyrazole-5-carboxamide]
cytosolic [Ca2+], Sf9 transiently expressing H. virescens ryanodine receptor (FIG. 4) [1]: increase in cytosolic [Ca^2+] | Calcium Release Threshold (nM) D. melanogaster [2]: <300 nM | IC50 [3]: < 300 nM | Calcium Release Threshold (nM) P. americana [4]: <300 nM | calcium responses in control cells without DNA (FIG. 4) [5]: No significant calcium responses
